From patent US12203125B2, “Device for determining antimicrobial susceptibility of a microorganism” (Q-linea AB, priority 2015, dated 2025)
In brackets after ≈: the same amount, converted by molar mass.

Key:
Assay type in all cases: cell-based
clinical isolate QM171 [1] = assay: Rapid AST: MIC calculated from microphotographs (biomass imaging, 0 to 4 hours) of isolate recovered from blood culture flask below 0.5 McFarland
Description: (§1) Dilutions of two different bacterial clinical isolates were seeded into an aerobic blood culture flask (Bactec, Becton Dickinson) at an estimated concentration of either 1 or 10 CFU/ml blood. Before seeding, the BCF had been filled with human blood from healthy donors. Aliquots from the dilution series were plated on agar and grown over night for viable count. Target concentration was 10 or 100 CFU seeded in 0.5 ml per BCF, corresponding to approximately 1 or 10 CFU/ml blood. The seeded BCF were allowed to incubate for 8 hours at 35° C. and a 5 ml aliquot were taken for subsequent AST. Another aliquot from the same BCF was used for determination of viable count after 8 hours' growth in the BCF.
(§2) A 5 ml aliquot of the cultured clinical isolate from the blood culture flask was filtered using a 100 μm filter to remove resin particles from the culture medium. The sample was thereafter mixed with a 10 ml of lysis buffer capable of selectively lysing any non-microbial cells present in the sample, and incubated for a sufficient amount of time for the non-microbial cells to be lysed. The resulting lysate was filtered through a 0.2 μm filter. Liquid components of the lysate (including components of the lysed non-microbial cells) passed through the filter, whereas microbial cells present in the sample were retained on the filter.
(§3) The retained microbial cells were re-suspended in liquid Mueller Hinton broth medium to form a microbial culture preparation, by back-flushing the filter with culture medium (i.e. flowing the culture medium in the opposite direction to filtration). 100 μl aliquots of the microbial culture preparation were then dispensed into wells of a microtiter plate.
(§4) The wells of the microtiter plate contained between 5 and 13 different concentrations of an antibiotic and different antibiotics. A negative control (i.e. comprising a blood sample with no seeded bacteria) and a positive control sample (i.e. an aliquot of the sample from a seeded BCF but into a well with no antimicrobial agent) were also set up at this stage.
(§5) Focus was performed on each inoculated well and each well was read at intervals of 1 hour. A total of 5 images were taken at time points from 0 to 4 hours after the initiation of the AST assay. The degree of microbial growth in each growth condition was monitored by imaging, by measuring the amount of microbial biomass in each well.
(§6) Microphotographs from the different wells were analysed to generate a numerical value of the biomass in the well and this was used as a marker of growth. From the growth a minimal inhibitory concentration was determined and compared to MIC obtained using a reference method, broth micro-dilution. […] A sample was determined to Pass (P) if within +/−1 two-fold dilution from the reference MIC.

clinical isolate QM006 [2] = assay: as above
Description: as §1, §2, §3, §4, §5, §6

clinical isolate QM171 [3] = assay: Reference MIC, broth micro-dilution (ISO 20776, turbidity after 16-20 hours); conditions: isolate QM171, broth micro-dilution from 0.5 McFarland, 16-20 hours growth
Description: as §6

clinical isolate QM006 [4] = assay: as above; conditions: isolate QM006, broth micro-dilution from 0.5 McFarland, 16-20 hours growth
[5] = tested on: gentamicin resistant E. coli strain; assay: AST by imaging at different starting titers; conditions: starting concentration 2×10^6 CFU/ml (Lane B) vs 3×10^5 CFU/ml (Lane A), four hours growth
Excerpt: E. coli grown in blood+BCF media were recovered via a clean-up procedure to remove blood components and only retain viable bacteria in MH-media. Adjustment of the recovered bacteria were made to ensure different titers are used at start of the AST. AST assays were set up to a starting concentration of 3×10^5 CFU/ml (Lane A) and 2×10^6 CFU/ml (Lane B) of a gentamicin resistant E. coli strain. Aliquots of the recovered bacteria were dispensed into a microtiter plate with freeze dried antibiotics at varying concentrations and allowed to grow for four hours before imaging. Shown are microphotographs from a series of different concentration of antibiotics in two-fold dilutions ranging from 64 mg/l to 0.0625 mg/l of gentamicin.

[6] = isolate QM171, experiment repeat no. 1, imaging after 4 h
[7] = isolate QM171, experiment repeat no. 2, imaging after 4 h
[8] = isolate QM171, experiment repeat no. 3, imaging after 4 h
[9] = isolate QM171, experiment repeat no. 4, imaging after 4 h
[10] = isolate QM171, experiment repeat no. 5, imaging after 4 h
[11] = isolate QM171, experiment repeat no. 6, imaging after 4 h
[12] = isolate QM171, experiment repeat no. 7, imaging after 4 h
[13] = isolate QM006, experiment repeat no. 1, imaging after 4 h
[14] = isolate QM006, experiment repeat no. 2, imaging after 4 h
[15] = isolate QM006, experiment repeat no. 3, imaging after 4 h
[16] = isolate QM006, experiment repeat no. 4, imaging after 4 h
[17] = isolate QM006, experiment repeat no. 5, imaging after 4 h
[18] = isolate QM006, experiment repeat no. 6, imaging after 4 h
[19] = isolate QM006, experiment repeat no. 7, imaging after 4 h
[20] = isolate QM006, experiment repeat no. 8, imaging after 4 h
[21] = isolate QM006, experiment repeat no. 9, imaging after 4 h

| Compound | MIC calculated from microphotographs (clinical isolate QM171 [1]; [6]) | MIC calculated from microphotographs (clinical isolate QM171 [1]; [7]) | MIC calculated from microphotographs (clinical isolate QM171 [1]; [8]) | MIC calculated from microphotographs (clinical isolate QM171 [1]; [9]) | MIC calculated from microphotographs (clinical isolate QM171 [1]; [10]) | MIC calculated from microphotographs (clinical isolate QM171 [1]; [11]) | MIC calculated from microphotographs (clinical isolate QM171 [1]; [12]) | MIC calculated from microphotographs (clinical isolate QM006 [2]; [13]) | MIC calculated from microphotographs (clinical isolate QM006 [2]; [14]) | MIC calculated from microphotographs (clinical isolate QM006 [2]; [15]) | MIC calculated from microphotographs (clinical isolate QM006 [2]; [16]) | MIC calculated from microphotographs (clinical isolate QM006 [2]; [17]) | MIC calculated from microphotographs (clinical isolate QM006 [2]; [18]) | MIC calculated from microphotographs (clinical isolate QM006 [2]; [19]) | MIC calculated from microphotographs (clinical isolate QM006 [2]; [20]) | MIC calculated from microphotographs (clinical isolate QM006 [2]; [21]) | Reference MIC (clinical isolate QM171 [3]) | Reference MIC (clinical isolate QM006 [4]) | MIC value at higher bacterial titer compared with lower titer [5] |
| --- | --- | --- | --- | --- | --- | --- | --- | --- | --- | --- | --- | --- | --- | --- | --- | --- | --- | --- | --- |
| CO/N=C(\C(=O)N[C@@H]1C(=O)N2C(C(=O)O)=C(COC(C)=O)CS[C@H]12)c1csc(N)n1 [Cefotaxime] | 8 µg/mL (≈ 17.6 µM) | > 16 µg/mL | > 16 µg/mL | > 16 µg/mL | > 16 µg/mL | 16 µg/mL (≈ 35.1 µM) | 16 µg/mL (≈ 35.1 µM) | > 8 µg/mL | > 16 µg/mL | > 16 µg/mL | > 16 µg/mL | > 16 µg/mL | > 16 µg/mL | > 16 µg/mL | > 16 µg/mL | > 16 µg/mL | > 8 µg/mL | > 8 µg/mL |  |
| CC(C)(O/N=C(\C(=O)N[C@@H]1C(=O)N2C(C(=O)[O-])=C(C[n+]3ccccc3)CS[C@H]12)c1csc(N)n1)C(=O)O [Ceftazidime] | 2 µg/mL (≈ 3.66 µM) | 2 µg/mL (≈ 3.66 µM) | 2 µg/mL (≈ 3.66 µM) | 2 µg/mL (≈ 3.66 µM) | 2 µg/mL (≈ 3.66 µM) | 2 µg/mL (≈ 3.66 µM) | 1 µg/mL (≈ 1.83 µM) | 8 µg/mL (≈ 14.6 µM) | 16 µg/mL (≈ 29.3 µM) | 8 µg/mL (≈ 14.6 µM) | 8 µg/mL (≈ 14.6 µM) | 8 µg/mL (≈ 14.6 µM) | 16 µg/mL (≈ 29.3 µM) | 8 µg/mL (≈ 14.6 µM) | 16 µg/mL (≈ 29.3 µM) | 8 µg/mL (≈ 14.6 µM) | 2 µg/mL | 16 µg/mL |  |
| C[C@@H](O)[C@H]1C(=O)N2C(C(=O)O)=C(S[C@@H]3CN[C@H](C(=O)N(C)C)C3)[C@H](C)[C@H]12 [Meropenem] | ≤ 0.5 µg/mL | ≤ 0.5 µg/mL | ≤ 0.5 µg/mL | ≤ 0.5 µg/mL | ≤ 0.5 µg/mL | ≤ 0.5 µg/mL | ≤ 0.5 µg/mL | ≤ 0.5 µg/mL | ≤ 0.5 µg/mL | ≤ 0.5 µg/mL | 1 µg/mL (≈ 2.61 µM) | ≤ 0.5 µg/mL | ≤ 0.5 µg/mL | ≤ 0.5 µg/mL | ≤ 0.5 µg/mL | ≤ 0.5 µg/mL | 1 µg/mL | ≤ 0.5 µg/mL |  |
| Gentamicin | 0.5 µg/mL | 0.5 µg/mL | 0.5 µg/mL | 0.5 µg/mL | 0.5 µg/mL | 0.5 µg/mL | 0.25 µg/mL | 16 µg/mL | 16 µg/mL | 16 µg/mL | 16 µg/mL | 16 µg/mL | 16 µg/mL | 16 µg/mL | 16 µg/mL | 16 µg/mL | ≤ 0.5 µg/mL | > 16 µg/mL | higher MIC value |
